Biological target: muscarinic acetylcholine receptors
Test: Inhibition of specific binding of 3H-Oxotremorine-M (3H-Oxo)
Set-up: species or system rat (male Wistar
Settings: rat cortex; 3H-Oxotremorine 1.0 nM; 20 mM Hepes pH 7.4; 30 min at 25° C.
Protocol: The pharmacological properties of the compounds of the present invention (Formula I) can be illustrated by determining their capability to inhibit the specific binding of ^3 H-Oxotremorine-M (^3 H-Oxo).
^3 H-Oxo labels muscarinic receptors in the CNS (with a preference for agonist domaines of the receptors). Three different sites are labelled by 3H-Oxo. These sites have affinity of 1.0, 20 and 3000 nM, respectively. Using the present experimental conditions only the high and medium affinity sites are determined. The inhibitory effects of compounds on ^3 H-Oxo binding reflects the affinity for muscarinic acetylcholine receptors.
All preparations are performed at 0°-4° C. unless otherwise indicated. Fresh cortex (0.1-1 g) from male Wistar rats (150-250 g) is homogenized for 5-10 s in 10 ml 20 mM Hepes pH: 7.4, with an Ultra-Turrax homogenizer. The homogenizer is rinsed with 10 ml of buffer and the combined suspension centrifuged for 15 min at 40,000×g. The pellet is washed three times with buffer. In each step the pellet is homogenized as before in 2×10 ml of buffer and centrifuged for 10 min at 40,000×g. The final pellet is homogenized in 20 mM Hepes pH: 7.4 (100 ml per g of original tissue) and used for binding assay. Aliquots of 0.5 ml is added 25 μl of test solution and 25 μl of ^3 H-Oxotremorine (1.0 nM, final concentration) mixed and incubated for 30 min at 25° C. Non-specific binding is determined in triplicate using Arecoline (1 μg/ml, final concentration) as the test substance. After incubation samples are added 5 ml of ice-cold buffer and poured directly onto Whatman GF/C glass fiber filters under suction and immediately washed 2 times with 5 ml of ice-cold buffer. The amount of radioactivity on the filters are determined by conventional liquid scintillation counting. Specific binding is total binding minus non-specific binding. Test substances are dissolved in 10 ml water (if necessary heated on a steam-bath for less than 5 minutes) at a concentration of 2.2 mg/ml. 25-75% inhibition of specific binding must be obtained before calculation of IC50.
The test value will be given as IC50 (the concentration (ng/ml) of the test substance which inhibits the specific binding of ^3 H-Oxo by 50%). [formula] where Co is specific binding in control assays and Cx is the specific binding in the test assay. (The calculations assume normal mass-action kinetics).

SMILES	Inhibition in vitro OXO BINDING (IC50: concentration which inhibits the specific binding of 3H-Oxo by 50%) [ng/mL]
CC=CCCCOc1nsnc1C1=CCCN(C)C1.O=C(O)C(=O)O [Compound 29, 3-(4-(4-hexenyloxy)-1,2,5-thiadiazol-3-yl)-1,2,5,6-tetrahydro-1-methylpyridine oxalate]	0.6
CC/C=C/CCOc1nsnc1C1=CCCN(C)C1.O=C(O)C(=O)O [Compound 30, trans-3-(4-(3-hexenyloxy)-1,2,5-thiadiazol-3-yl)-1,2,5,6-tetrahydro-1-methylpyridine oxalate]	0.4
CC/C=C\COc1nsnc1C1=CCCN(C)C1.O=C(O)C(=O)O [Compound 31, cis-3-(4-(2-pentenyloxy)-1,2,5-thiadiazol-3-yl)-1,2,5,6-tetrahydro-1-methylpyridine oxalate]	0.7
CCC/C=C\COc1nsnc1C1=CCCN(C)C1.O=C(O)C(=O)O [Compound 32, cis-3-(4-(2-hexenyloxy)-1,2,5-thiadiazol-3-yl)-1,2,5,6-tetrahydro-1-methylpyridine oxalate]	1.4
CCC/C=C/COc1nsnc1C1=CCCN(C)C1.O=C(O)C(=O)O [Compound 35, trans-3-(4-(2-hexenyloxy)-1,2,5-thiadiazol-3-yl)-1,2,5,6-tetrahydro-1-methylpyridine oxalate]	0.6
CN1CCC=C(c2cnsn2)C1.O=C(O)C(=O)O [Compound 36, 3-(1,2,5-thiadiazol-3-yl)-1,2,5,6-tetrahydro-1-methylpyridine oxalate]	0.3
CCCCCCOc1nsnc1C1=CCCNC1.O=C(O)C(=O)O [Compound 37, 1,2,5,6-tetrahydro-3-(4-hexyloxy-1,2,5-thiadiazol-3-yl) pyridine oxalate]	6.3
COCCOCCOc1nsnc1C1=CCCN(C)C1.O=C(O)C(=O)O [Compound 38, 3-(4-(2-(2-methoxyethoxy)ethoxy)-1,2,5-thiadiazol-3-yl)-1,2,5,6-tetrahydro-1-methylpyridine oxalate]	7.4
CCOCCOc1nsnc1C1=CCCN(C)C1.O=C(O)C(=O)O [Compound 40, 3-(4-(2-ethoxyethoxy)-1,2,5-thiadiazol-3-yl)-1,2,5,6-tetrahydro-1-methylpyridine oxalate]	3.7
CCCCOCCOc1nsnc1C1=CCCN(C)C1.O=C(O)C(=O)O [Compound 41, 3-(4-(2-butoxyethoxy)-1,2,5-thiadiazol-3-yl)-1,2,5,6-tetrahydro-1-methylpyridine oxalate]	1.3
CCCCOCCOCCOc1nsnc1C1=CCCN(C)C1.O=C(O)C(=O)O [Compound 42, 3-(4-(2-(2-butoxyethoxy)ethoxy)-1,2,5-thiadiazol-3-yl)-1,2,5,6-tetrahydro-1-methylpyridine oxalate]	7.0
CCOCCOCCOc1nsnc1C1=CCCN(C)C1.O=C(O)C(=O)O [Compound 43, 3-(4-(2-(2-ethoxyethoxy)ethoxy)-1,2,5-thiadiazol-3-yl)-1,2,5,6-tetrahydro-1-methylpyridine oxalate]	4.0
CC1CCN(c2nsnc2C2=CCCN(C)C2)CC1.O=C(O)C(=O)O [Compound 44, 3-(4-(4-methylpiperidino)-1,2,5-thiadiazol-3-yl)-1,2,5,6-tetrahydro-1-methylpyridine oxalate]	14
